How the values were obtained:
[1] = system: jejunal and ileal crypt cells; experiment: Rat model of SBS: crypt cell proliferation (5-BrdU incorporation); assay type: in vivo; settings: SBS rats, oral insulin, vs SBS-untreated, p<0.05
Method: (§1) Animal treatment: Animals were obtained from the Rappaport Faculty of Medicine (Technion, Haifa, Israel). Male rats weighing 240-260 g were kept in individual stainless steel cages at constant temperature and humidity, and a 12-hour light-dark cycle was maintained. Rats were fasted 12 hours prior to the experiment with free access to water. Animals underwent one of two surgical procedures: bowel transection and re-anastomosis or 75% bowel resection and anastomosis. General anesthesia was induced with Pentobarbital (IP 40 mg/kg). Using sterile techniques, the abdomen was opened using a midline incision. […]
(§2) Group C—SBS-Insulin (SBS-INS, n=13) rats underwent bowel resection and were fed regular chow diet and water containing insulin (ACTRAPID insulin, NOVO NORDISK, Denmark) at concentration of 1 u/ml. Food and fluid intake of animals were monitored as well as weight for a period of 14 days following treatment after which the animals were sacrificed following intraperitoneal injection of pentobarbital (75 mg/kg).
Crypt Cell Proliferation and Enterocyte Apoptosis: Rats were injected with standard 5-bromodeoxyuridine (5-BrdU) labeling reagent (Zymed Lab, Inc, CA) at dose 1 ml per 100 g body weight two hours prior to sacrifice. […] An index of proliferation was determined as the ratio of crypt cells staining positively for BrdU per 10 crypts.

infants with SBS = experiment: Oral insulin supplementation in infants with SBS (clinical evaluation); assay type: in vivo, human
Text: 1. Infants with less than 30 cm of small intestine (with ileo-cecal valve intact).
2. Infants with less than 40 cm without ileo-cecal valve.
3. Infants and children younger than 10 years of age, with SBS who are […] nutrition dependent and are not expected to be weaned of […] nutrition
Exclusion criteria: Infants in an unstable condition such as sepsis, acute gastroenteritis, pneumonia.
Dosage: 1 unit of insulin (Actrapid, Novonordisk, Denmark)/kg body weight per dose×4/day (every 6 hours) was administered for 28 days. Insulin was administered every six hours. Insulin will be provided as 1 u/ml of 0.45 NaCl orally.
Glucose monitoring: Following the first insulin dose, blood glucose levels were measured, immediately prior to the first and second meal following the first dose of insulin. Measurements were repeated for the first three days following supplementation and then weekly (days 7, 14, 21 and 28)
The clinical evaluation of the patients' conditions included the following parameters:
1. Weight, length, head circumference, MAC (mid arm circumference), TSF (triceps skin fold)—weekly
3. […] intake of calories, carbohydrates, lipids
4. Blood concentration levels of glucose, albumin, ALT, AST, GGT, ALP, total cholesterol, triglycerides (fasting), HDL-cholesterol, insulin (fasting, before insulin administration)
5. Blood amino acid levels
6. Insulin antibodies. 1 ml of serum was removed prior to treatment and at day 28 following treatment. The samples were frozen at −70° C. and sent, on dry ice, to Division of Pediatric Gastroenterology and Nutrition, Meyer Children's Hospital of Haifa, Bat-Galim 31096, Haifa for analysis.

enterocytes = experiment: Rat model of SBS: enterocyte apoptosis (TUNEL assay); assay type: in vivo; settings: SBS rats, oral insulin
Method: as §1, §2
Apoptosis of enterocytes was assessed by terminal […] nick-end labeling (TUNEL) immunohistochemical assay using the I.S. Cell Death Detection kit (Boehringer Mannheim GmbH, Mannheim, Germany). […] For each group, the number of stained cells was counted in at ten villi in areas without necrosis. […]

[2] = infant with SBS, oral insulin started, within a few days after initiation

Q: With insulin as the substance, how does the “additional increase in proliferation index in jejunum” value [1] read?
A: 36%

Q: What about the “increase in proliferation index in ileum” value [1] of the same substance?
A: 52%

Q: And the stool output (infants with SBS; human infants with SBS, oral insulin 1 unit/kg per dose x4/day)?
A: reduced stool output

Q: And the jaundice (infants with SBS; [2])?
A: decrease in jaundice

Q: And the “need for parenteral nutrition” value (infants with SBS; [2])?
A: reduced need for parenteral nutrition

Q: What about the oral feeds (infants with SBS; [2]) of the same substance?
A: increase in oral feeds

Q: And the clinical outcome (infants with SBS; infant with SBS, three months following the addition of insulin)?
A: discharged from hospital, thriving and on full oral feeds

Q: What about the parenteral nutrition status (infants with SBS; infant with SBS, two months following the addition of oral insulin) of the same substance?
A: parenteral nutrition was stopped

Q: And the “apoptotic cells number in ileum” value (enterocytes; vs SBS-untreated)?
A: did not affect

Q: And the “apoptotic index in jejunum” value (enterocytes; SBS-untreated 29±7, mean±SEM, p<0.05)?
A: 11±3 TUNEL positive cells/10 villi

Reference: patent publication US8026211B2, “Methods and formulations for increasing intestinal function” (Technion Research & Development Foundation Ltd., priority 2004, dated 2011)
